These are literature values, as cited in patent US20210121480A1, “STABLE PHARMACEUTICAL COMPOSITIONS CONTAINING ESTRADIOL AND PROGESTERONE FOR ORAL ADMINISTRATION” (SLAYBACK PHARMA LLC, priority 2019, published 2021).

In brackets after ≈: the same amount, converted by molar mass.

The conditions of this data set: reported.

With `CC(=O)[C@H]1CC[C@H]2[C@@H]3CCC4=CC(=O)CC[C@]4(C)[C@H]3CC[C@]12C` [Progesterone], the aqueous solubility was 7 ± 0 µg/mL (≈ 22.3 µM).
